The test system of experiment [1] is Rattus norvegicus. Nature of the experiment: In vivo inhibition of galactitol accumulation in diaphragm of rat at 25 mg/kg/day. Format: functional.
Experiment [2] concerns Rattus norvegicus. As to the kind of experiment: In vivo inhibition of galactitol accumulation in sciatic nerves of rat at 25 mg/kg/day. As to conditions: Sciatic nerve. Format: functional.
Experiment [3] has as its target Aldo-keto reductase family 1 member B1 (Bos taurus) (UniProt P16116). Nature of the experiment: In vitro % decrease of aldose reductase measured in isolated partially purified bovine lens preparations at 10e-7 M concentration.
Experiment [4] concerns Rattus norvegicus. Nature of the experiment: In vivo inhibition of galactitol accumulation in diaphragm of rat at 18 mg/kg/day. Format: functional.
The test system of experiment [5] is Rattus norvegicus. As to the kind of experiment: In vivo inhibition of galactitol accumulation in sciatic nerves of rat at 18 mg/kg. Format: functional. Conditions: Sciatic nerve.
The subject of experiment [6] is Rattus norvegicus. As to the kind of experiment: In vivo inhibition of galactitol accumulation in sciatic nerves of rat at 65 mg/kg/day; Not significant. Format: functional, organism-based. Conditions: Sciatic nerve.
Experiment [7] relates to Rattus norvegicus. As to the kind of experiment: In vivo inhibition of galactitol accumulation in diaphragm of rat at 65 mg/kg/day. Format: functional.
For experiment [8], the system named is Rattus norvegicus. As to the kind of experiment: In vivo inhibition of galactitol accumulation in sciatic nerves of rat at 14 mg/kg/day. As to conditions: Sciatic nerve. Format: functional.
Experiment [9] deals with Rattus norvegicus. Nature of the experiment: In vivo inhibition of galactitol accumulation in diaphragm of rat at 27 mg/kg/day. Format: functional.
The test system of experiment [10] is Rattus norvegicus. As to the kind of experiment: In vivo inhibition of galactitol accumulation in sciatic nerves of rat at 27 mg/kg/day. Format: functional. As to conditions: Sciatic nerve.
Experiment [11] has as its system Rattus norvegicus. Nature of the experiment: In vivo inhibition of galactitol accumulation in diaphragm of rat at 14 mg/kg/day. Format: functional.
The target of experiment [12] is Aldo-keto reductase family 1 member B1 (Bos taurus) (UniProt P16116). Nature of the experiment: In vitro % decrease of aldose reductase was measured in isolated partially purified bovine lens preparations at 10e-7 M concentration; Not active.
For experiment [13], the species on record is Rattus norvegicus. Nature of the experiment: (§1) In vitro inhibition of sorbitol accumulation was measured in rat sciatic nerves incubated in the presence of 50 mM glucose at 10e-6 M concentration. Format: functional, Sciatic nerve.
Experiment [14] concerns Rattus norvegicus. As to the kind of experiment: In vivo inhibition of galactitol accumulation in sciatic nerves of rat at 133 mg/kg/day. Format: functional. As to conditions: Sciatic nerve.
The species named for experiment [15] is Rattus norvegicus. As to the kind of experiment: (§2) In vitro inhibition of sorbitol accumulation was measured in rat sciatic nerves incubated in the presence of 50 mM glucose at 10e-5 M concentration. Format: functional, Sciatic nerve.
Experiment [16] relates to Rattus norvegicus. As to the kind of experiment: In vivo inhibition of galactitol accumulation in diaphragm of rat at 133 mg/kg/day. Format: functional.
Experiment [17] concerns Rattus norvegicus. Nature of the experiment: In vivo inhibition of galactitol accumulation in sciatic nerves of rat at 11 mg/kg/day. Format: functional. Conditions: Sciatic nerve.
Experiment [18] relates to Rattus norvegicus. As to the kind of experiment: In vivo inhibition of galactitol accumulation in diaphragm of rat at 11 mg/kg/day. Format: functional.
Experiment [19] deals with Rattus norvegicus. Nature of the experiment: In vivo inhibition of galactitol accumulation in sciatic nerves of rat at 22 mg/kg/day. Format: functional. As to conditions: Sciatic nerve.
Experiment [20] deals with Rattus norvegicus. As to the kind of experiment: In vivo inhibition of galactitol accumulation in diaphragm of rat at 22 mg/kg/day. Format: functional.
Experiment [21] relates to Rattus norvegicus. Nature of the experiment: In vivo inhibition of galactitol accumulation in diaphragm of rat at 50 mg/kg. Format: functional.
The subject of experiment [22] is Rattus norvegicus. As to the kind of experiment: In vivo inhibition of galactitol accumulation in diaphragm of rat at 24 mg/kg/day. Format: functional.
For experiment [23], the system named is Rattus norvegicus. Nature of the experiment: In vivo inhibition of galactitol accumulation in sciatic nerves of rat at 24 mg/kg/day. Format: functional. Conditions: Sciatic nerve.
In experiment [24] the test system is Rattus norvegicus. As to the kind of experiment: In vivo inhibition of galactitol accumulation in sciatic nerves of rat at 50 mg/kg/day. Format: functional. Conditions: Sciatic nerve.
Experiment [25] concerns Rattus norvegicus. As to the kind of experiment: In vivo inhibition of galactitol accumulation in diaphragm of rat at 4 mg/kg/day. Format: functional.
The species named for experiment [26] is Rattus norvegicus. The experiment is described as §1. Conditions: Sciatic nerve. Format: functional.
Experiment [27] has as its system Rattus norvegicus. As to the kind of experiment: Effective dose of aldose reductase was evaluated by measuring galactitol accumulation in sciatic nerves of rat at 4 mg/kg/day. Format: functional. Conditions: Sciatic nerve.
The species named for experiment [28] is Rattus norvegicus. Described as §2. As to conditions: Sciatic nerve. Format: functional.
Experiment [29] concerns Rattus norvegicus. As to the kind of experiment: In vivo inhibition of galactitol accumulation in sciatic nerves of rat at 4 mg/kg/day. Conditions: Sciatic nerve. Format: functional.
Experiment [30] deals with Rattus norvegicus. As to the kind of experiment: In vivo inhibition of galactitol accumulation in sciatic nerves of rat at 132 mg/kg/day. Format: functional. As to conditions: Sciatic nerve.
Experiment [31] deals with Rattus norvegicus. As to the kind of experiment: In vivo inhibition of galactitol accumulation in diaphragm of rat at 132 mg/kg/day. Format: functional.
Experiment [32] deals with Rattus norvegicus. Nature of the experiment: In vivo inhibition of galactitol accumulation in diaphragm of rat at 144 mg/kg/day. Format: functional.
Experiment [33] concerns Rattus norvegicus. Nature of the experiment: In vivo inhibition of galactitol accumulation in sciatic nerves of rat at 144 mg/kg/day. Format: functional. Conditions: Sciatic nerve.

Active and inactive are the calls of the source. The calls are words filed in the database; no cut-off is given here.

Data on 9 compounds can be found in ChEMBL document CHEMBL1125860 (J Med Chem, 1991).

A word on the inhibition in vivo: it is the change of the read-out against control, counted positive when it falls. Low readings indicate little suppression, high ones strong suppression. As usually defined, the inhibition is the change of the read-out against control, counted positive when it falls. Consider `COc1ccc2c(C(=S)N(C)CC(=O)O)cccc2c1Br`, for which the values for the inhibition in vivo at 25 mg/kg/day with Rattus norvegicus [1] and in the experiment on Rattus norvegicus [2] were 90% and 64%, respectively. Further, in [3], the inhibition came to 72%. The compound also returned an inhibition in vivo at 18 mg/kg/day with Rattus norvegicus [4] of 88%. Besides, 18 mg/kg produced 39% inhibition in vivo in the experiment with Rattus norvegicus [5].
Regarding `COc1ccc2c(C(=O)N(C)CC(=O)O)c(OCc3ccccc3)ccc2c1C(F)(F)F`, in the experiment on Rattus norvegicus [6], the inhibition result was “inactive”. In the experiment on Rattus norvegicus [7], this compound gave an inhibition in vivo at 65 mg/kg/day of 23%. This compound also had an inhibition in experiment [3] of 73%.
Take `COc1ccc2c(C(=O)N(C)CC(N)=O)ccc(F)c2c1C(F)(F)F`: the figures for the inhibition in vivo at 14 mg/kg/day in the experiment on Rattus norvegicus [8] and with Rattus norvegicus [11] were 72% and 74%, respectively. The inhibition in vivo at 27 mg/kg/day in the experiment with Rattus norvegicus [9] amounted to 31%; in the experiment on Rattus norvegicus [10], 56%. Further, the inhibition result in [12] was “inactive”.
As a reminder, the Inhibition is the change of the read-out against control, counted positive when it falls. With `COc1ccc2c(C(=S)N(C)CC(=O)O)cc(-c3ccccc3)cc2c1Br`, the Inhibition was 30% in the experiment filed under Rattus norvegicus [13] and 68% in the experiment listed under Rattus norvegicus [15]. The inhibition in vivo at 133 mg/kg/day amounted to 58% in the experiment with Rattus norvegicus [14] and 85% in the experiment on Rattus norvegicus [16]. The compound further yielded an inhibition in [3] of 81%.
Regarding `COC(=O)CN(C)C(=O)c1c(F)ccc2c(C(F)(F)F)c(OC)ccc12`, the inhibition in vivo at 27 mg/kg/day with Rattus norvegicus [9] and in the experiment with Rattus norvegicus [10] was 48% throughout. The inhibition in vivo at 11 mg/kg/day turned out to be 29% in the experiment with Rattus norvegicus [17] and 34% with Rattus norvegicus [18]. In addition, the figures for the inhibition in vivo at 22 mg/kg/day in the experiment on Rattus norvegicus [19] and with Rattus norvegicus [20] were 80% and 55%, respectively. Further, the inhibition result in experiment [12] was “inactive”.
As for `COc1ccc2c(C(=O)N(C)CC(=O)O)c(OCC(F)(F)F)ccc2c1C(F)(F)F`, the results for the Inhibition in the experiment filed under Rattus norvegicus [13] and in the experiment filed under Rattus norvegicus [15] were 31% and 57%, respectively. Besides, testing at 50 mg/kg in the experiment with Rattus norvegicus [21] gave an inhibition in vivo of 82%. Besides, the inhibition in vivo at 24 mg/kg/day amounted to 65% in the experiment with Rattus norvegicus [22] and 37% in the experiment with Rattus norvegicus [23]. Besides, the inhibition in vivo at 50 mg/kg/day with Rattus norvegicus [24] turned out to be 79%. Besides, the inhibition in experiment [3] came to 67%.
The IC50 is the concentration needed to halve the response being measured. Usually ED50 stands for the dose at which the effect has come halfway, by size or by number of responders. A lower ED50 goes with greater potency. In the case of `O=C1NC(=O)[C@@]2(CCOc3ccc(F)cc32)N1` [SORBINIL], the results for the Inhibition in the experiment listed under Rattus norvegicus [13] and in the experiment filed under Rattus norvegicus [15] were 27% and 96%, respectively. For the same compound, the inhibition in vivo at 4 mg/kg/day stood at 69% in the experiment on Rattus norvegicus [25] and 55% with Rattus norvegicus [29]. In addition, the IC50 in the experiment listed under Rattus norvegicus [26] and in the experiment filed under Rattus norvegicus [28] was 2200 nM each time. In addition, in the experiment with Rattus norvegicus [27], the ED50 was determined as 4.2 mg/kg.
Take `COc1ccc2c(C(=O)N(C)CC(=O)O)cc(-c3ccccc3)cc2c1Br`: the Inhibition in the experiment listed under Rattus norvegicus [13] was found to be 28%; in the experiment listed under Rattus norvegicus [15], 71%. Also, the inhibition in vivo at 132 mg/kg/day was 24% in the experiment on Rattus norvegicus [30] and 33% in the experiment with Rattus norvegicus [31]. This compound also displayed an inhibition in experiment [3] of 83%.
On to `COc1ccc2c(C(=S)N(C)CC(=O)O)cc(Cc3ccccc3)cc2c1Br`, for which the values for the Inhibition in the experiment filed under Rattus norvegicus [13] and in the experiment listed under Rattus norvegicus [15] were 48% and 78%, respectively. The inhibition in experiment [3] was determined as 84%. The inhibition in vivo at 144 mg/kg/day in the experiment with Rattus norvegicus [32] was determined as 84%; in the experiment with Rattus norvegicus [33] it was 46%.
